CC1(C)CC(NCCCCCCNC2CC(C)(C)NC(C)(C)C2)CC(C)(C)N1
solubility (mole fraction)
Details	in acetone	in acetonitrile	in ethyl acetate	in isobutyl acetate	in isopropyl acetate	in methyl acetate	in n-propyl acetate
273.15 K	0.00859	0.00115	0.0288	0.0497	0.0408	0.0224	0.0341
278.15 K	0.013	0.00183	0.0396	0.0625	0.0549	0.0321	0.046
283.15 K	0.0191	0.00233	0.056	0.0831	0.0736	0.0448	0.063
288.15 K	0.029	0.00371	0.0776	0.108	0.0983	0.0663	0.084
293.15 K	0.0467	0.00537	0.108	0.139	0.128	0.102	0.113
298.15 K	0.0737	0.00821	0.145	0.178	0.165	0.142	0.152
303.15 K	0.117	0.0139	0.193	0.226	0.212	0.185	0.2
